Measured values published in patent US10882826B2, “Quinolinone or quinazolinone comprising antibiofilm compositions, compounds and methods and uses relating thereto” (University College Cork—National University of Ireland, priority 2015, dated 2021).

What was measured:
[1] = system: Pseudomonus aeruginosa; test: Virulence of Pseudomonas aeruginosa (summary statement); format: cell-based; conditions: unlike HHQ and PQS
Method: The virulence of compounds B1, B2, C2, C3, C4, C5, C6, C8 and C11 towards P. aeruginosa was assessed using the following method:
P. aeruginosa strains were cultured as described above for 24 hr, with the addition of test compounds (10 μM). Cultures were centrifuged at 4000 rpm for 10 minutes and the cell free supernatant (5 ml) removed. Chloroform (3 ml) was added, and mixed by vortex. After centrifugation at 4000 rpm for 5 mins, the lower aqueous phase was transferred to 0.2 M HCl (2 ml). Samples were mixed by vortex and centrifuged at 4000 rpm for 5 mins to separate the phases. An aliquot of the top phase (1 ml) was removed and spectrophotmetrically analysed at OD570 nm. Phenazine production was calculated using the following formula: OD570 nm×2×17.072 and the units expressed in μg/ml. […]

[2] = system: C. albicans strain SC5314 biofilm; test: XTT metabolic assay of C. albicans biofilm; format: cell-based, Candida albicans; conditions: for XTT result, Mean (MeOH control = 1) / Absorbance at 492 nm, Mean (XTT): C. albicans biofilm; for Absorbance at 492 nm, Mean (XTT): test compound 100 μM, 24 hr, MeOH control 0.647, untreated 0.851; for effectiveness against fungal biofilms formed by Candida albicans (in words): summary statement
Method: C. albicans strain SC5314 was sub-cultured from 15% (v/v) glycerol stocks at −80° C. onto Yeast Peptone Dextrose (YPD) medium [1% (w/v) yeast extract, 2% (w/v) peptone and 2% (w/v) dextrose] and incubated at 30° C. overnight.
The test compounds in desiccated form were re-suspended in Methanol to create a 10 mM stock. […]
The ability of some of the compounds detailed in example 1 to disrupt Candida albicans was tested using Confocal Scanning Laser Microscopy and an XTT Metabolic Assay. The XTT assay is a commonly used quantitative method assessing Candida biofilm mass and growth often in response to novel drug therapies.
C. albicans biofilm formation was carried out in 96 well plates by a method of the prior art. Briefly, C. albicans was inoculated into Yeast Nitrogen Base [10% (w/v)] and glucose/maltose [10% (w/v)] and incubated overnight at 30° C. Seeding densities for all subsequent experiments (N=3) were OD600=0.05. Cells were grown in Yeast Nitrogen Base supplemented with 1 M Phosphate buffer and acetyl-D-glucosamine (YNB-NP) along with appropriate volumes of test compound to provide the desired concentration. Cells were cultured in 96 well plates for 1 hr at 37° C. to facilitate yeast attachment. After this incubation, the supernatants were aspirated, the wells washed twice with YNB-NP media, and fresh media with the same concentration of test compound added to the appropriate wells. The plate was incubated for 24 hr at 37° C. The next day, the cultures were aspirated and the wells washed once with YNB-NP media.
C. albicans biofilm quantification was carried out in 96 well plates using a semi-quantitative Tetrazolium salt, 2,3-bis-(2-methoxy-4-nitro-5-sulfophenyl)-2H tetrazolium-5-carboxanilide inner salt (XTT) reduction assay (Hawser, Tunney et al, Antimicrob Agents Chemother. 2004 May; 48(5):1879-81). XTT (0.01 g) was dissolved in sterile water (20 ml) and filter sterilized. 10 μl of Menadione dissolved in Acetone was added to the XTT solution, just before use. The XTT-Menadione Solution (100 μl) was added to each well. The plate was incubated in the dark at 37° C. for up to 2 hr to allow for colour development. The OD492 nm was recorded for each well. Experiments were repeated at least three times, with at least eight technical replicates.
Experiments were first carried out using the test compound at concentration of 100 μM.

[3] = system: P. aeruginosa PAO1 pqsA-pqsA-lacZ strain; test: Phenazine extraction (phenazine production); format: cell-based; conditions: PAO1 pqsA-pqsA-lacZ strain, test compounds 10 μM, 24 hr; methanol control 0.080
Method: (§1) P. aeruginosa strains, PAO1 and pqsA mutant, containing the chromosomally inserted pqsA-lacZ promoter fusion on plasmid pUC18-mini-Tn7, were sub-cultured from glycerol stocks onto LB agar plates, supplemented with Carbenicillin (200 μg/ml) and X-gal (40 μg/ml), and incubated at 37° C. overnight. Single colonies were inoculated into LB broth (20 ml), supplemented with Carbenicillin (200 μg/ml), and incubated at 37° C., shaking at 180 rpm overnight. For subsequent experiments, the OD600 nm was recorded and a starting OD600 nm of 0.02 was inoculated into fresh LB broth, supplemented with Carbenicillin (200 μg/ml) and incubated at 37° C., shaking at 180 rpm.
P. aeruginosa strains were cultured as described above for 24 hr, with the addition of test compounds (10 μM). Cultures were centrifuged at 4000 rpm for 10 minutes and the cell free supernatant (5 ml) removed. Chloroform (3 ml) was added, and mixed by vortex. After centrifugation at 4000 rpm for 5 mins, the lower aqueous phase was transferred to 0.2 M HCl (2 ml). Samples were mixed by vortex and centrifuged at 4000 rpm for 5 mins to separate the phases. An aliquot of the top phase (1 ml) was removed and spectrophotmetrically analysed at OD570 nm. Phenazine production was calculated using the following formula: OD570 nm×2×17.072 and the units expressed in μg/ml.
(§2) The phenazine production levels and Miller units in the PAO1 pqsA-pqsA-lacZ strain are detailed in table 5.
(§3) The virulence of compounds B2, C13 and C15 towards P. aeruginosa was assessed using an analogous method.

[4] = system: DU145; test: LDH release cytotoxicity, DU145; format: cell-based; conditions: DU145 cell line; percentage of 0.1% Triton
Method: (§4) Lactate dehydrogenase (LDH) release from IB3 lung epithelial cells was assayed as a measure of cytotoxicity using an LDH colorimetric kit (Roche) according to manufacturers' instructions. Briefly, IB3-1 cells were seeded onto 96 well plates and treated with methanol (control) and test compounds (100 μM). Following 16 hr incubation at 37° C. and 5% CO2, supernatants were removed and added to catalyst reaction mixture in a fresh plate and further incubated at 37° C. and 5% CO2 for 30 mins to allow for colour development. After this period, the plate was analysed on an ELISA plate reader at OD490 nm. Cytotoxicity was expressed as a percentage of cells treated with 0.1% (v/v) Triton (100% cytotoxicity). The results are detailed in table 3:
(§5) The above experiments were repeated, testing some compounds against further cell lines (A549, DU145 and HeLa).

[5] = system: pqsA-lacZ promoter fusion; test: Promoter fusion based expression analysis (pqsA-lacZ, Miller units); format: cell-based, P. aeruginosa; conditions: PAO1 pqsA-pqsA-lacZ strain, 100 μM, overnight; methanol control 12287
Method: as §1
Promoter fusion analyses were performed in a 96-well format. Briefly, overnight cultures of wild-type PAO1 pqsA-lacZ (pLP0996) and mutant strain PAO1 pqsA^− pqsA-LacZ were diluted to OD600 nm=0.02 in LB. Test compounds at 100 μM final concentration were added, mixed, aliquoted into 96 well plates and incubated overnight at 37° C. with shaking. The next day, OD600 nm values were recorded in a plate reader. Aliquots of cells (0.02 ml) were permeabilised [100 mM dibasic sodium phosphate (Na2HPO4), 20 mM KCl, 2 mM MgSO4, 0.8 mg/mL CTAB (hexadecyltrimethylammonium bromide), 0.4 mg/mL sodium deoxycholate, 5.4 μL/mL beta-mercaptoethanol] and added to substrate solution [60 mM Na2HPO4, 40 mM NaH2PO4, 1 mg/mL o-nitrophenyl-β-D-Galactoside (ONPG), 2.7 μL/mL β-mercaptoethanol]. The kinetics of colour development was monitored and the reactions were stopped using 1M NaCO3. OD420 nm were recorded as above. Miller units were calculated using the following equation; 1000×[OD420 nm/(OD600 nm)×0.02 ml×reaction time (mins)].
as §2, §3

[6] = system: IB3 lung epithelial cells; test: LDH release cytotoxicity, IB3-1 cells; format: cell-based; conditions: 100 μM, 16 hr, percentage of 0.1% Triton (100% cytotoxicity), MeOH 3.844
Method: as §4, with “cytotoxicity).” for “cytotoxicity). The results are detailed in table 3:”

[7] = system: mammalian cells; test: Cytotoxicity towards mammalian cells (summary statement); format: cell-based
Method: as §4, §5

[8] = system: A. fumigatus Af293 biofilm; test: A. fumigatus biofilm assay (crystal violet); format: cell-based, Aspergillus fumigatus
Method: A. fumigatus Af293 was routinely grown on Sabouraud dextrose agar (SDA) in 100 ml cell culture flasks at 37° C. for 3-4 days until a lawn of fungal growth was observed.
(§6) A. fumigatus Af293 was grown on SDA in 100 ml cell culture flasks at 37° C. for 3-4 days. Conidia were harvested by flooding the surface of the agar plates with 5 ml PBS (Oxoid) containing 0.025% (v/v) Tween 20 and gently moving the liquid over the surface of the fungal lawn. The conidial suspension was transferred into a 25 ml sterile container and conidia were counted using a Neubauer haemocytometer and light microscope. Conidia were adjusted to the required concentration in RPMI 1640 (Sigma) buffered to pH 7.0 with 0.165 M MOPS immediately prior to biofilm formation analysis.
(§7) To assess biofilm formation, counted A. fumigatus spores (1×10^5) in MOPS buffered RPMI 1640 were inoculated into 24- and 96-well plates and grown overnight in the presence of 100 μM HHQ, PQS and the test compounds. After 24 hrs, the media was removed and the biofilm washed twice with distilled water after which 0.1% crystal violet (CV) was added to each well and allowed to stand for 1 hr at room temperature. The crystal violet was removed and all wells washed in a water bath by inversion. Ethanol was added to each well to solubilise biofilms after which samples were read on a spectrophotometer at Abs595 nm.

[9] = system: A. fumigatus CFBRC3 biofilm; test: A. fumigatus biofilm assay, clinical source CFBRC3; format: cell-based, Aspergillus fumigatus; conditions: biofilm from clinical source CFBRC3
Method: as §6, §7
(§8) The above experiments were carried out using biofilms grown from laboratory sources of A. fumigatus. The experiments were repeated to test some compounds against biofilms grown from three different clinical sources of A. fumigatus (CFBRC1, CFBRC2 and CFBRC3. The results are shown in table 8: […]

[10] = system: A. fumigatus CFBRC2 biofilm; test: A. fumigatus biofilm assay, clinical source CFBRC2; format: cell-based, Aspergillus fumigatus; conditions: biofilm from clinical source CFBRC2
Method: as §6, §7, §8

[11] = system: A. fumigatus CFBRC1 biofilm; test: A. fumigatus biofilm assay, clinical source CFBRC1; format: cell-based, Aspergillus fumigatus; conditions: biofilm from clinical source CFBRC1
Method: as §6, §7, §8

SMILES | effect on virulence of Pseudomonus aeruginosa (in words) [1] | XTT result, Mean (MeOH control = 1) ([2]; 10 μM) | XTT result, Mean (MeOH control = 1) ([2]; 50 μM) | XTT result, Mean (MeOH control = 1) ([2]; 100 μM) | Absorbance at 492 nm, Mean (XTT) [2] | effectiveness against fungal biofilms formed by Candida albicans (in words) [2] | Phenazine, Mean [3] | Cytotoxicity, Mean (LDH release) [4] | Miller Units, Mean [5] | % Cytotoxicity, Mean (LDH release) [6] | cytotoxicity towards mammalian cells (in words) [7] | Relative absorbance at 595 nm compared to methanol control, Mean ([8]; A. fumigatus Af293 biofilm, 100 μM, 24 hrs, crystal violet) | effectiveness against fungal biofilms formed by Aspergillus fumigatus (in words) ([8]; summary statement) | Relative absorbance compared to MeOH (=1), Mean [9] | Relative absorbance compared to MeOH (=1), Mean [10] | Relative absorbance compared to MeOH (=1), Mean [11]
CCCCCCCc1cc(=O)c2cc(C)ccc2[nH]1 [Compound C3] | do not increase the virulence | 0.71 | 0.57 | 0.51 | 0.307 | effective | 0.774 µg/mL | 32.42% | 18350 Miller Units | 23.77% |  |  |  |  |  | 
CCCCCCCn1c(=O)cc(O)c2ccccc21 [Compound C6] | do not increase the virulence |  |  |  | 0.336 | effective | 0.011 µg/mL |  | 16678 Miller Units | 19.70% | reduced cytotoxicity |  |  |  |  | 
CCCCCCCCCc1cc(=O)c2ccccc2[nH]1 [Compound C10] | do not increase the virulence | 0.58 | 0.50 | 0.53 | 0.419 |  |  | 31.7% |  |  | reduced cytotoxicity | 0.24 | effective | 0.670 | 0.567 | 0.772
